# In patent US20250313563A1, “GLYCOGEN SYNTHASE KINASE 3 INHIBITORS AND USES THEREOF” (The Broad Institute, Inc., priority 2022, published 2025):
# Read-outs that look alike come from different tables or passages of the source.
# Assays:
# [1] = target: GSK3b (GST-full length GSK3b) (Homo sapiens (Human), UniProt P49841); experiment: GSK3b TR-FRET kinase assay; type: biochemical
# Method: (§1) TR-FRET Assay: The assay was performed in a white, 384 well, low volume, flat bottom plate (Grenier). After a 30 minute preincubation in assay buffer with the indicated concentration of compound, the kinase activity was initiated by the addition of the substrates. 1 nM GSK3α (GST-full length GSK3α [SignalChem G08-10G]) or 1 nM GSK3b (GST-full length GSK3b: [SignalChem G08-9G]) were then incubated at ambient temperature for 100 minutes in 10 μL of 50 mM Tris, pH 7.5, 20 mM MgCl2, 0.05 mM DTT, 100 μg/mL BSA and 1% DMSO, with 200 nM biotinylated peptide substrate (biotinylated and S645 phosphorylated glycogen synthase 631-650) and either 4 μM ATP (GSK3α, Table 16) or 2 μM ATP (GSK3b, Table 16) or 1 mM ATP (Table 17). The kinase activity was quenched with 2 μL of 250 mM EDTA. A 10 μL volume of 40 nM Strepavidin-d2, 2 nM Tb^2+-pSer641 antibody in TR-FRET Detection Buffer (Invitrogen) was then added. After 60 min at room temperature the plate was read on Envision plate reader using Ex: 340 nm, Em: 615 nm and […]. The normalized 665/615 Signal ratio versus log compound concentration was analyzed by XLFIT to yield IC50 values.
# [2] = target: GSK3α (GST-full length GSK3α) (Homo sapiens (Human), UniProt P49840); experiment: GSK3α TR-FRET kinase assay; type: biochemical
# Method: as §1
# [3] = 1 nM GSK3b, 2 μM ATP, 30 minute preincubation, geometric mean, read-out: GSK3-B TR-FRET BIOCHEMICAL (TR-FRET), GMean, IC50
# [4] = 1 nM GSK3α, 4 μM ATP, 30 minute preincubation, geometric mean, read-out: GSK3-A TR-FRET BIOCHEMICAL (TR-FRET), GMean, IC50
# [5] = 1 nM GSK3b, 2 μM ATP, 30 minute preincubation, Table 16, read-out: GSK3-B TR-FRET BIOCHEMICAL (TR-FRET)
# [6] = 1 nM GSK3α, 4 μM ATP, 30 minute preincubation, Table 16, read-out: GSK3-A TR-FRET BIOCHEMICAL (TR-FRET)
# [7] = read-out: GSK3-B (TR-FRET 1 mM ATP), GMean, IC50, 1 mM ATP, geometric mean
# [8] = read-out: GSK3-A (TR-FRET 1 mM ATP), GMean, IC50, 1 mM ATP, geometric mean
# GSK3b (GST-full length GSK3b), sequence (P49841 whole entry): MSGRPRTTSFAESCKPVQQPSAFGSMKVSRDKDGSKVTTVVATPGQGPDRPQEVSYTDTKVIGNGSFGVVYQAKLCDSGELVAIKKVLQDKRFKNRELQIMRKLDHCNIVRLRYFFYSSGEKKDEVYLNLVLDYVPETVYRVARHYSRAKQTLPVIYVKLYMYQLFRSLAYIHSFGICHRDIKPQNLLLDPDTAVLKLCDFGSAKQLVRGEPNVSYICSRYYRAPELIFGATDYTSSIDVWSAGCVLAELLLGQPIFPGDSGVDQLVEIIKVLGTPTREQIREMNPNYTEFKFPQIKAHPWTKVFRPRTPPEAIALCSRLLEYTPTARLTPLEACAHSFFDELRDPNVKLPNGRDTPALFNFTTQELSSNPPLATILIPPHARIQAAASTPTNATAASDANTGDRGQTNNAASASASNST
# GSK3α (GST-full length GSK3α), sequence (P49840 whole entry): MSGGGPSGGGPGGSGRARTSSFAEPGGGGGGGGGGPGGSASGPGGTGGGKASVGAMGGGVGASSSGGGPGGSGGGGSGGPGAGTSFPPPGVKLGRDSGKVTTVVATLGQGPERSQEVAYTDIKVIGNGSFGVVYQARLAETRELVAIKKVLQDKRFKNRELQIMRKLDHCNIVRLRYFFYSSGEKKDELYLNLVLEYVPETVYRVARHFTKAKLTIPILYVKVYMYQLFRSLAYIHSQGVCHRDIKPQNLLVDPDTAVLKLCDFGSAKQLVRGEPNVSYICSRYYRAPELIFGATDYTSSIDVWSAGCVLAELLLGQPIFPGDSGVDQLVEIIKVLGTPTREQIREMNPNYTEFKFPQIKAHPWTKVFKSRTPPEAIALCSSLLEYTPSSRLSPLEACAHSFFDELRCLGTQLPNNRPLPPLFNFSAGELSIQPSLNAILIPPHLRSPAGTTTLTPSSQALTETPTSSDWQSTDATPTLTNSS
"IC50 [1, 3] [nM]","IC50 [2, 4] [nM]",SMILES,also measured
> 5000,100 to 1000,CC[C@]1(c2ccccc2)C2=C(C[C@@H](c3ccccc3)CC2=O)Nc2n[nH]cc21 [Compound 791264],–
> 5000,1000 to 5000,CC[C@@]1(c2ccccc2)C2=C(C[C@@H](c3ccccc3)CC2=O)Nc2n[nH]cc21 [Compound 791265],–
–,–,CC[C@]1(c2ccccc2)C2=C(Nc3n[nH]cc31)[C@@H]1CC[C@@H](C1)C2=O [Compound 791266],"IC50 [1, 5]: > 5000 nM; IC50 [2, 6]: > 5000 nM"
–,–,CC[C@@]1(c2ccccc2)C2=C(Nc3n[nH]cc31)[C@@H]1CC[C@@H](C1)C2=O [Compound 791268],"IC50 [1, 5]: > 5000 nM; IC50 [2, 6]: > 5000 nM"
–,–,CC[C@]1(c2ccccc2)C2=C(Nc3n[nH]cc31)[C@H]1CC[C@H](C1)C2=O [Compound 791269],"IC50 [1, 5]: 100 to 1000 nM; IC50 [2, 6]: 100 to 1000 nM"
–,–,CC[C@@]1(c2ccccc2)C2=C(Nc3n[nH]cc31)[C@H]1CC[C@H](C1)C2=O [Compound 791270],"IC50 [1, 5]: > 1700 nM; IC50 [2, 6]: 100 to 1000 nM"
100 to 1000,≤ 100,CCC1(c2cccc(-c3ccncc3)c2)C2=C(CC(C)(C)CC2=O)Nc2n[nH]cc21 (stereo not shown) [Compound 791271],–
100 to 1000,≤ 100,CCC1(c2cccc(-c3cccnc3)c2)C2=C(CC(C)(C)CC2=O)Nc2n[nH]cc21 (stereo not shown) [Compound 791272],–
100 to 1000,≤ 100,C[C@@]1(c2ccccc2)C2=C(CC3(CCCC3)CC2=O)Nc2n[nH]cc21 [Compound 792338],–
> 5000,> 1700,C[C@]1(c2ccccc2)C2=C(CC3(CCCC3)CC2=O)Nc2n[nH]cc21 [Compound 792339],–
≤ 100,≤ 100,CC[C@@]1(c2ccccc2)C2=C(CC(C)(C)CC2=O)Nc2n[nH]c(Br)c21 [Compound 792340],"IC50 ([1]; GSK3-B (TR-FRET 1 mM ATP), GMean, IC50, 1 mM ATP, geometric mean): 100 to 1000 nM; IC50 ([2]; GSK3-A (TR-FRET 1 mM ATP), GMean, IC50, 1 mM ATP, geometric mean): 100 to 1000 nM"
100 to 1000,100 to 1000,CC[C@]1(c2ccccc2)C2=C(CC(C)(C)CC2=O)Nc2n[nH]c(Br)c21 [Compound 792341],–
100 to 1000,100 to 1000,COc1cccc(C2(C)C3=C(CC(C)(C)CC3=O)Nc3n[nH]cc32)c1 (stereo not shown) [Compound 792342],–
> 1670,1000 to 5000,CCC1(c2cccc(Cl)c2)C2=C(CC(C)(C)CC2=O)Nc2n[nH]c(C(F)(F)F)c21 (stereo not shown) [Compound 801309],–
≤ 100,≤ 100,CC[C@@]1(c2cccc(C(F)(F)F)c2)C2=C(CC3(CCCC3)CC2=O)Nc2n[nH]cc21 [Compound 801311],"IC50 [1, 7]: 100 to 1000 nM; IC50 [2, 8]: ≤ 100 nM"
–,–,CCC1(c2cccc(Cl)c2)C2=C(CC(C)(C)CC2=O)Nc2n[nH]c(Br)c21 (stereo not shown) [Compound 801314],"IC50 [1, 7]: 100 to 1000 nM; IC50 [2, 8]: ≤ 100 nM"
≤ 100,≤ 100,CCC1(c2cccc(C3CC3)c2)C2=C(CC(C)(C)CC2=O)Nc2n[nH]cc21 (stereo not shown) [Compound 801316],–
100 to 1000,100 to 1000,CCC1(c2cccc(N3CCCC3)c2)C2=C(CC(C)(C)CC2=O)Nc2n[nH]cc21 (stereo not shown) [Compound 801317],–
≤ 100,≤ 100,CCC1(c2cccc(N(C)C(C)=O)c2)C2=C(CC(C)(C)CC2=O)Nc2n[nH]cc21 (stereo not shown) [Compound 801319],–
100 to 1000,100 to 1000,CCC1(c2cccc(N3CCCCC3)c2)C2=C(CC(C)(C)CC2=O)Nc2n[nH]cc21 (stereo not shown) [Compound 801320],–
100 to 1000,≤ 100,CCC1(c2cccc(C(C)C)c2)C2=C(CC(C)(C)CC2=O)Nc2n[nH]cc21 (stereo not shown) [Compound 801322],–
≤ 100,≤ 100,CCC1(c2cccc(Br)c2)C2=C(CC(C)(C)CC2=O)Nc2n[nH]c(C(F)(F)F)c21 (stereo not shown) [Compound 801324],–
100 to 1000,> 1670,CC(C)(C)Cc1[nH]nc2c1C1(CCc3cccc(F)c31)C1=C(CC(C)(C)CC1=O)N2 (stereo not shown) [Compound 801351],–
> 1670,100 to 1000,CC1(C)CC(=O)C2=C(C1)Nc1n[nH]cc1C21CCc2c(F)cccc21 (stereo not shown) [Compound 801357],–
≤ 100,≤ 100,CC1(C)CC(=O)C2=C(C1)Nc1n[nH]c(Br)c1C21CCc2c(F)cccc21 (stereo not shown) [Compound 801358],–

"IC50 [1, 3] [nM]","IC50 [2, 4] [nM]",SMILES,also measured
> 5000,> 5000,CC1(C)CC(=O)C2=C(C1)Nc1n[nH]cc1[C@@]2(C)c1cccc(-c2ccccc2)c1 [Compound 801366],–
100 to 1000,≤ 100,CC1(C)CC(=O)C2=C(C1)Nc1n[nH]cc1[C@]2(C)c1cccc(-c2ccccc2)c1 [Compound 801367],–
> 5000,> 5000,CCC1(c2cccc(-c3ccccc3)c2)C2=C(CC(C)(C)CC2=O)Nc2n[nH]cc21 (stereo not shown) [Compound 801369],–
–,–,CCC1(c2ccccc2)C2=C(CSCC2=O)Nc2n[nH]cc21 (stereo not shown) [Compound 801406],"IC50 ([1]; 1 nM GSK3b, 2 μM ATP, 30 minute preincubation, read-out: GSK3-B TR-FRET BIOCHEMICAL (TR-FRET), IC50): > 5000 nM; IC50 ([2]; 1 nM GSK3α, 4 μM ATP, 30 minute preincubation, read-out: GSK3-A TR-FRET BIOCHEMICAL (TR-FRET), IC50): 1000 to 5000 nM"
> 5000,> 5000,CC[C@@]1(c2cccc(-c3ccncc3)c2)C2=C(CC(C)(C)CC2=O)Nc2n[nH]cc21 [Compound 801412],–
≤ 100,≤ 100,CCC1(c2cccc(-c3ccncc3)c2)C2=C(CC(C)(C)CC2=O)Nc2n[nH]cc21 (stereo not shown) [Compound 801413],"IC50 [1, 7]: 1000 to 5000 nM; IC50 [2, 8]: 100 to 1000 nM"
≤ 100,≤ 100,CCC1(c2cccc(-c3cnn(C)c3)c2)C2=C(CC(C)(C)CC2=O)Nc2n[nH]c(C(F)(F)F)c21 (stereo not shown) [Compound 801445],–
> 1670,100 to 1000,CCC1(c2cccc(OCCOC)c2)C2=C(CC(C)(C)CC2=O)Nc2n[nH]cc21 (stereo not shown) [Compound 801446],–
1000 to 5000,100 to 1000,CCC1(c2cccc(OC)c2)C2=C(CC(C)(C)CC2=O)Nc2n[nH]cc21 (stereo not shown) [Compound 801447],–
100 to 1000,≤ 100,CCC1(c2cccc(OC(C)C)c2)C2=C(CC(C)(C)CC2=O)Nc2n[nH]cc21 (stereo not shown) [Compound 801448],–
≤ 100,≤ 100,CCC1(c2cccc(C(F)(F)F)c2)C2=C(CC(C)(C)CC2=O)Nc2n[nH]c(Br)c21 (stereo not shown) [Compound 802358],–
100 to 1000,1000 to 5000,CC1(C)CC(=O)C2=C(C1)Nc1n[nH]c(C(F)(F)F)c1C21CCc2c(F)cccc21 (stereo not shown) [Compound 806568],–
100 to 1000,≤ 100,Cc1cccc2c1CCC21C2=C(CC(C)(C)CC2=O)Nc2n[nH]cc21 (stereo not shown) [Compound 806603],–
> 5000,> 1670,CCC1(c2cccc(N3CCNCC3)c2)C2=C(CC(C)(C)CC2=O)Nc2n[nH]cc21 (stereo not shown) [Compound 806604],–
> 5000,1000 to 5000,CC1(C)CC(=O)C2=C(C1)Nc1n[nH]cc1C2(C)c1cc(Cl)ccc1Cl (stereo not shown) [Compound 806605],–
> 5000,> 5000,CC[C@@]1(c2ccccc2)C2=C(C[C@@H](C(F)(F)F)CC2=O)Nc2n[nH]cc21 [Compound 806607],–
> 1670,100 to 1000,CC[C@]1(c2ccccc2)C2=C(C[C@@H](C(F)(F)F)CC2=O)Nc2n[nH]cc21 [Compound 806608],–
> 1670,100 to 1000,CC[C@]1(c2ccccc2)C2=C(C[C@H](C(F)(F)F)CC2=O)Nc2n[nH]cc21 [Compound 806609],–
> 5000,> 5000,CC[C@@]1(c2ccccc2)C2=C(C[C@H](C(F)(F)F)CC2=O)Nc2n[nH]cc21 [Compound 806611],–
> 5000,> 1670,CC1(C)CC(=O)C2=C(C1)Nc1n[nH]cc1[C@@]21CCc2c(F)cccc21 [Compound 806632],–
100 to 1000,≤ 100,CC1(C)CC(=O)C2=C(C1)Nc1n[nH]cc1[C@]21CCc2c(F)cccc21 [Compound 806633],–
100 to 1000,≤ 100,CCC1(c2cccc(-c3ccncn3)c2)C2=C(CC(C)(C)CC2=O)Nc2n[nH]cc21 (stereo not shown) [Compound 806637],–
1000 to 5000,100 to 1000,CC1(C)CC(=O)C2=C(C1)Nc1n[nH]c(Br)c1[C@@]21CCc2c(F)cccc21 [Compound 806938],–
≤ 100,≤ 100,CC1(C)CC(=O)C2=C(C1)Nc1n[nH]c(Br)c1[C@]21CCc2c(F)cccc21 [Compound 806939],–
> 5000,> 5000,CC[C@]1(c2cccc(N(C)C(C)=O)c2)C2=C(CC(C)(C)CC2=O)Nc2n[nH]cc21 [Compound 810359],–
